We go through 7 compounds from patent US12371454B2, “Cyclic peptide compound having Kras inhibitory action” (priority 2019, dated 2025).

Starred links: 1 amine or outer side, 2 acyl side, 3 side chain; linkers in the order of their positions; H or OH if unused. Positions of bridges follow the written chain, without caps; N, C: chain ends. Non-standard residues stand in square brackets, D forms with d. Residues, ends and D or L forms follow the SMILES beside them. *: point of attachment. hPhe(3-Cl-4-CF3) = N[C@@H](CCc1ccc(C(F)(F)F)c(Cl)c1)C(=O)O; X6 = CCN([C@@H](CC1CCCCC1)C(=O)[*:2])[*:1]; NMeGly(cPent) = CN[C@H](C(=O)O)C1CCCC1; NMeAla(cPr) = CN[C@@H](CC1CC1)C(=O)O; NMeGly(cBu) = CN[C@H](C(=O)O)C1CCC1; NMeCha = CN[C@@H](CC1CCCCC1)C(=O)O; NMeChg = CN[C@H](C(=O)O)C1CCCCC1; NMeD = CN[C@@H](CC(=O)O)C(=O)O; NMeL = CN[C@@H](CC(C)C)C(=O)O; Chg = N[C@H](C(=O)O)C1CCCCC1; NMePra = C#CC[C@H](NC)C(=O)O; NMeNva = CCC[C@H](NC)C(=O)O; NMeV = CN[C@H](C(=O)O)C(C)C; NMeA = CN[C@@H](C)C(=O)O; Piperidide = C1CCN(*)CC1; Ac5c = NC1(C(=O)O)CCCC1; Aze = O=C(O)[C@@H]1CCN1; Sar = CNCC(=O)O

Assay [1] deals with T1, Kras and SOS1 (biotin-tagged human Kras loaded with GDP, His-tagged human SOS1) (Homo sapiens, UniProt P01116, G12D).
T1 construct: made in house; host or cells: E. coli (stated for Kras only)
The experiment in a line: Protein-protein interaction inhibition between Kras and SOS1 (KrasGl2D-SOS PPI) using AlphaScreen. Format: binding. Conditions: AlphaScreen; biotin-tagged human Kras loaded with GDP, His-tagged human SOS1; read-out: KRAS G12D-SOS PPI IC50. The procedure, abridged:
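Read-out is acceptor-bead light at 520-620 nm, arising when 680 nm-irradiated nickel donor beads pass singlet oxygen to streptavidin acceptors. The bead pair links His-tagged SOS1 with biotin-tagged, GDP-bound Kras from E. coli.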
(In general: Alpha assays give light when donor and acceptor beads are brought close together.)

The subject of assay [2] is Human pancreatic cancer cell line AsPC-1. The experiment in a line: Measurement of AsPC-1 cell growth inhibition (AsPC-1 CGI). Type of assay: cell-based. Conditions: 96 h. The procedure, abridged:
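AsPC-1 cells in 15% FBS RPMI-1640 were exposed to test compound for 96 hours at 37° C, with CellTiter-Glo as endpoint.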

T1 sequence (P01116 1-188 isoform P01116-2 G12D): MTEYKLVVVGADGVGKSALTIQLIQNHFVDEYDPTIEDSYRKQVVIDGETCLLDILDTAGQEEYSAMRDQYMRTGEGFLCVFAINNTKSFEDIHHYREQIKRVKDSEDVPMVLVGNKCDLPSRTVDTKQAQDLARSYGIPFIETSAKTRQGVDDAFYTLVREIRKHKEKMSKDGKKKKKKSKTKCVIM

One may read the IC50 as the midpoint of a concentration-inhibition curve. Turning to `CC[C@H](C)[C@@H]1NC(=O)[C@H](CC(C)C)N(C)C(=O)C[C@@H](C(=O)N2CCCCC2)N(C)C(=O)[C@H](C2CCCCC2)N(C)C(=O)C2(CCCC2)NC(=O)[C@@H]2CCCN2C(=O)[C@H](CCc2ccc(C(F)(F)F)c(Cl)c2)NC(=O)CN(C)C(=O)[C@H](CC2CCCCC2)N(CC)C(=O)CN(C)C(=O)CN(C)C1=O` [Compound 543] ([NMeL]I[Sar][Sar][X6][Sar][hPhe(3-Cl-4-CF3)]P[Ac5c][NMeChg][NMeD]-Piperidide; lactam N-11), the figures for the IC50 in assay [1] and in assay [2] were 0.56 nM and 50 to 100 nM, respectively.

`CCC[C@H]1C(=O)N(C)[C@H](C(=O)N2CCCCC2)CC(=O)N(C)[C@@H](CC(C)C)C(=O)N[C@@H]([C@@H](C)CC)C(=O)N(C)CC(=O)N(C)CC(=O)N(C)[C@@H](CC2CCCCC2)C(=O)N(C)CC(=O)N[C@@H](CCc2ccc(C(F)(F)F)c(Cl)c2)C(=O)N2CCC[C@H]2C(=O)NC2(CCCC2)C(=O)N1C` [Compound 548] ([NMeL]I[Sar][Sar][NMeCha][Sar][hPhe(3-Cl-4-CF3)]P[Ac5c][NMeNva][NMeD]-Piperidide; lactam N-11): the IC50 was 1.6 nM in assay [1] and 100 to 500 nM in assay [2].

For the compound `C#CC[C@H]1C(=O)N[C@@H]([C@@H](C)CC)C(=O)N(C)CC(=O)N(C)CC(=O)N(C)[C@@H](CC2CCCCC2)C(=O)N(C)CC(=O)N[C@@H](CCc2ccc(C(F)(F)F)c(Cl)c2)C(=O)N2CCC[C@H]2C(=O)NC2(CCCC2)C(=O)N(C)[C@@H](C2CCCCC2)C(=O)N(C)[C@H](C(=O)N2CCCCC2)CC(=O)N1C` [Compound 551] ([NMePra]I[Sar][Sar][NMeCha][Sar][hPhe(3-Cl-4-CF3)]P[Ac5c][NMeChg][NMeD]-Piperidide; lactam N-11), the IC50 was 0.52 nM in assay [1] and 50 to 100 nM in assay [2].

Regarding `CC(C)C[C@H]1C(=O)N[C@@H](C2CCCCC2)C(=O)N(C)CC(=O)N(C)CC(=O)N(C)[C@@H](CC2CCCCC2)C(=O)N(C)CC(=O)N[C@@H](CCc2ccc(C(F)(F)F)c(Cl)c2)C(=O)N2CCC[C@H]2C(=O)NC2(CCCC2)C(=O)N(C)[C@@H](C2CCCCC2)C(=O)N(C)[C@H](C(=O)N2CCCCC2)CC(=O)N1C` [Compound 552] ([NMeL][Chg][Sar][Sar][NMeCha][Sar][hPhe(3-Cl-4-CF3)]P[Ac5c][NMeChg][NMeD]-Piperidide; lactam N-11), the IC50 was 0.63 nM in assay [1] and 100 to 500 nM in assay [2].

For `CC[C@H](C)[C@@H]1NC(=O)[C@H](CC2CC2)N(C)C(=O)C[C@@H](C(=O)N2CCCCC2)N(C)C(=O)[C@H](C(C)C)N(C)C(=O)C2(CCCC2)NC(=O)[C@@H]2CCCN2C(=O)[C@H](CCc2ccc(C(F)(F)F)c(Cl)c2)NC(=O)CN(C)C(=O)[C@H](CC2CCCCC2)N(C)C(=O)CN(C)C(=O)CN(C)C1=O` [Compound 561] ([NMeAla(cPr)]I[Sar][Sar][NMeCha][Sar][hPhe(3-Cl-4-CF3)]P[Ac5c][NMeV][NMeD]-Piperidide; lactam N-11), the IC50 is 3.4 nM in assay [1] and 100 to 500 nM in assay [2].

On to `CC[C@H](C)[C@@H]1NC(=O)[C@H](C2CCC2)N(C)C(=O)C[C@@H](C(=O)N2CCCCC2)N(C)C(=O)[C@H](C2CCCCC2)N(C)C(=O)C2(CCCC2)NC(=O)[C@@H]2CCCN2C(=O)[C@H](CCc2ccc(C(F)(F)F)c(Cl)c2)NC(=O)CN(C)C(=O)[C@H](CC2CCCCC2)N(C)C(=O)CN(C)C(=O)CN(C)C1=O` [Compound 562] ([NMeGly(cBu)]I[Sar][Sar][NMeCha][Sar][hPhe(3-Cl-4-CF3)]P[Ac5c][NMeChg][NMeD]-Piperidide; lactam N-11), for which the IC50 in assay [1] is 0.56 nM; in assay [2], 50 to 100 nM.

On to `CC[C@H](C)[C@@H]1NC(=O)[C@H](CC(C)C)N(C)C(=O)C[C@@H](C(=O)N(C)C)N(C)C(=O)[C@H](C2CCCC2)N(C)C(=O)C2(CCCC2)NC(=O)[C@H](C)NC(=O)[C@H](CCc2ccc(C(F)(F)F)c(Cl)c2)NC(=O)CN(C)C(=O)[C@H](CC2CCCCC2)N(C)C(=O)[C@@H]2CCN2C(=O)[C@H](C)N(C)C1=O` [Compound 575] ([NMeL]I[NMeA][Aze][NMeCha][Sar][hPhe(3-Cl-4-CF3)]A[Ac5c][NMeGly(cPent)][NMeD]-NMe2; lactam N-11), for which the IC50 in assay [1] was 0.56 nM; in assay [2], 100 to 500 nM.
